Data set [1] in a line: Dissolution study in 5% aqueous dextrose solution. The format is physicochemical. Conditions: saline or isotonic, thermodynamic from solid, 50 ml 5% aqueous dextrose solution. The procedure:
As this invention also relates to a method of preparing a liquid pharmaceutical formulation of tranilast for delivery, for example, as an injectable formulation, a liquid oral formulation or a nebulised inhaled formulation a study was also carried out to explore the dissolution rates of the crystalline tranilast salts of this invention in a suitable media. As liquid pharmaceutical formulations are usually made up in-situ at the bedside for immediate delivery it is important that these new solid forms of tranilast dissolve almost instantaneously for them to be suitable for use in a liquid pharmaceutical formulation. Whilst liquid oral formulations could be achieved by simply dissolving a drug in water prior to administration (the high aqueous solubility of the new crystalline tranilast salts would make this possible), a liquid formulation for inhaled or intravenous delivery requires the dissolution media to be isotonic. This is often achieved by using saline (0.9% sodium chloride in water) as the liquid formulation media. […] An alternative isotonic media suitable for preparing liquid pharmaceutical formulations for inhaled or intravenous administration is 5% aqueous dextrose solution. […] The results of this study can be seen in FIG. 41.

For data set [2] the following is noted: carboxylic acid group of tranilast; cited from earlier work.
The conditions of data set [3]: cited from earlier work.
For data set [4] the following is noted: 600 mg daily dosage, inter-patient variation; cited from earlier work.
For data set [5] the following is noted: dissolved or stored in solution, UV exposure; cited from earlier work.
The conditions of data set [6]: exposed to light, listed as pure crystalline tranilast; cited from earlier work.

Values after ≈ are worked out from the molar mass of the structure shown.

For `COc1ccc(/C=C/C(=O)Nc2ccccc2C(=O)O)cc1OC` [Tranilast, 2-[[3-(3,4-dimethoxyphenyl)-1-oxo-2-propenyl]amino] benzoic acid], the solubility (commonly the concentration that dissolves in the medium under given conditions) at 1 minute in data set [1] (1 minute) worked out at 1 µg/mL (≈ 3.05 µM). The compound further registered a solubility at 1 hour in data set [1] (1 hour) of 60 µg/mL (≈ 183 µM). The pKa (commonly the pH at which an ionisable group is half protonated) in data set [2] was 3.25. The “solubility in pH 1.2 buffer solution” value in data set [3] (pH 1.2 buffer solution) is on record as 0.7 μg/ml. For the same compound, the solubility in water in data set [3] (water) is 14.5 µg/mL (≈ 44.3 µM). For the same compound, the Solubility (in general, the dissolved amount per volume that the medium holds) in data set [3] (water, comparative literature value in Table 16) was 14.5 µg/mL (≈ 44.3 µM). The “plasma concentrations of the drug” value in data set [4] was 30 to 300 µM. In data set [5], the “photochemical stability in solution (in words)” value is recorded as “photochemically unstable”. Moreover, the “solid-state photostability (in words)” value in data set [6] is given as “photostable”.

(Values after patent US12084399B2, “Crystalline tranilast salts and their pharmaceutical use” (NUFORMIX TECHNOLOGIES LIMITED, priority 2018, dated 2024).)
